In brackets after ≈: the same amount, converted by molar mass.

Experimental findings from EPA's ToxValDB 9.5 (doi:10.2903/j.efsa.2013.3166) are described below.

Series [1] has as its system Typhlodromus pyri. Description: LR50; higher = less toxic. Conditions: not reported; mortality.
Series [2] has as its system Colinus virginianus. To be noted: for LD50: acute, oral, mortality.
Series [3] deals with Lepomis macrochirus. To be noted: acute; duration: 96 hours; mortality.
Series [4] concerns Rattus norvegicus.
The test system of series [5] is Tagia sp.
For series [6], the system named is Pimephales promelas. To be noted: acute; mortality.
Series [7] deals with Perca sp. Conditions: acute; duration: 96 hours; mortality.
Series [8] has as its system Canidae. Conditions: chronic; duration: 1 years; oral; Dog Other; food consumption.
In series [9] the test system is Apis mellifera. To be noted: acute, duration: 48 hours, mortality.
The subject of series [10] is Folsomia candida.
The mark [11] stands for this setting: acute, duration: 14 days, mortality.

What is called NOAEL is the highest tested level that showed no adverse finding. On to `CC(C)(C)c1ccc(CCOc2ncnc3ccccc23)cc1` [Fenazaquin], for which the LR50 in series [1] was < 2 g/ha. Also, the LD50 was > 1170 mg/kg-day in [2] (diet); 1750 mg/kg-day in series [2]; 134 mg/kg-day in series [4] (acute, oral, M, mortality); 1.21 µg/piece in series [9] (dermal); 4.29 µg/piece in [9] (oral, unspecified). The NOEC in series [2] (reproduction developmental) was 80.3 mg/kg-day; in series [5] (chronic/long-term, duration: 8 weeks), 1.25 mg/kg; in series [10] (chronic/long-term, duration: 28 days), 23 mg/kg. For the same compound, the LC50 is 34.1 ng/mL (≈ 0.111 µM) in [3]; 26.5 mg/kg in [5] (setting [11]); 4.2 ng/mL (≈ 0.0137 µM) in series [6]; 3.2 ng/mL (≈ 0.0104 µM) in [7]; > 1000 mg/kg in series [10] (setting [11]). Besides, the NOAEL in [4] (chronic, duration: 2 years, oral, histopathology: nonneoplastic) turned out to be 0.46 mg/kg-day; in series [4] (reproduction developmental, food consumption), 10 mg/kg-day; in [8], 5 mg/kg-day. This compound also registered an NOEL in series [4] (reproduction developmental) of 25 mg/kg-day.
